According to patent US5200409A, “Composition and use of substituted 1,3-dithiolo-and 1,4-dithiinoquinoxalines as an antimicrobial” (The Dow Chemical Company, priority 1992, dated 1993):
≈ marks a conversion by molar mass, not a printed value. Like-named read-outs stand apart in the source and are kept apart here.

Experiments:
[1] = tested on: Saccharomyces cerevisiae (Sc); experiment: Minimum inhibitory concentration (MIC) in malt yeast agar; type: cell-based, Saccharomyces cerevisiae ATCC 4105; settings: malt yeast agar, 30° C., 48 hours for yeast, read-out: Minimum Inhibitory Concentration, Sc
Experimental: (§1) The minimum inhibitory concentration (MIC) for the compounds listed in Table I is determined for 9 bacteria, using nutrient agar: and 7 yeast and fungi, using malt yeast agar. A one percent solution of the test compound is prepared in a mixture of acetone and water. Nutrient agar is prepared at pH 6.8, representing a neutral medium, and at pH 8.2, representing an alkaline medium. The nutrient agars are prepared by adding 23 g of nutrient agar to one-liter of deionized water. In addition, the alkaline medium is prepared by adjusting a 0.04M solution of N-[tris-(hydroxymethyl)methyl]-glycine buffered deionized water with concentrated sodium hydroxide to a pH of […]. Malt yeast agar is prepared by adding 3 g yeast extract and 45 g malt agar per liter of deionized water. The specific agar is dispensed in 30 ml aliquots into 25×200 mm test tubes, capped and autoclaved for 15 minutes at 115° C. The test tubes containing the agar are cooled in a water bath until the temperature of the agar is 48° C. Then, an appropriate amount of the one percent solution of the test compound is added (except in the controls where no compound is added) to the respective test tubes so that the final concentrations are 500, 250, 100, 50, 25, 10, 5, 2.5, 1.0 and zero parts per million of the test compound in the agar, thus having a known concentration of test compound dispersed therein. The contents of the test tubes are then transferred to respective petri plates. After drying for 24 hours, the petri plates containing nutrient agar are inoculated with bacteria and those containing malt yeast agar are inoculated with yeast and fungi.
(§2) The inoculation with the yeast and fungi is accomplished as follows. Cultures of yeast and fungi are incubated for seven days on malt yeast agar at 30° C. These cultures are used to prepare suspensions by the following procedure. A suspension of each organism is prepared by adding 10 ml of sterile saline and 10 microliters of octylphenoxy polyethoxy ethanol to the agar slant of yeast or fungi. The sterile saline/octylphenoxy polyethoxy ethanol solution is then agitated with a sterile swab to suspend the microorganism grown on the slant. Each resulting suspension is diluted into sterile saline (1 part suspension: 9 parts sterile saline). Aliquots of these dilutions are placed in individual wells of Steer's Replicator and petri plates inoculated as previously described. The petri plates are incubated at 30° C. and read after 48 hours for yeast and 72 hours for fungi.
(§3) Table II lists the bacteria, yeast and fungi used in the MIC test described above along with their respective American Type Culture Collection (ATCC) identification numbers.

Candida albicans (Ca) = experiment: as above; type: cell-based, Candida albicans ATCC 10231; settings: malt yeast agar; 30° C.; 48 hours for yeast; read-out: Minimum Inhibitory Concentration, Ca
Experimental: as §1, §2, §3

[2] = tested on: Klebsiella pneumoniae (Kp); experiment: Minimum inhibitory concentration (MIC) in nutrient agar; type: cell-based, Klebsiella pneumoniae ATCC 8308
Experimental: as §1
(§4) The inoculation with bacteria is accomplished by using the following procedure. Twenty-four hour-cultures of each of the bacteria are prepared by incubating the respective bacteria in tubes containing nutrient broth for 24 hours at 30° C. in a shaker. Dilutions of each of the 24 hour-cultures are made so that nine separate suspensions (one for each of the nine test bacteria) are made, each containing 10^8 colony forming units (CFU) per ml of suspension of a particular bacteria. Aliquots of 0.3 ml of each of the bacterial suspensions are used to fill the individual wells of Steer's Replicator. For each microbial suspension, 0.3 ml was used to fill three wells (i.e., three wells of 0.3 ml each) so that for the nine different bacteria, 27 wells are filled. The Steer's Replicator is then used to inoculate both the neutral and alkaline pH nutrient agar petri plates.
(§5) The inoculated petri plates are incubated at 30° C. for 48 hours and then read to determine if the test compound which is incorporated into the agar prevented growth of the respective bacteria.
as §3

[3] = tested on: Enterobacter aerogenes (Ea); experiment: as above; type: cell-based, Enterobacter aerogenes ATCC 13048; settings: Klebsiella aerogenes, 48 h
Experimental: as §1, §4, §5, §3

Escherichia coli (Ec) = experiment: as above; type: cell-based, Escherichia coli ATCC 11229; settings: 48 h
Experimental: as §1, §4, §5, §3

[4] = tested on: Salmonella choleraesuis (Sc); experiment: as above; type: cell-based, Salmonella choleraesuis ATCC 10708; settings: Salmonella enterica, 48 h
Experimental: as §1, §4, §5, §3

Bacillus subtilis (Bs) = experiment: as above; type: cell-based, Bacillus subtilis ATCC 8473; settings: 48 h
Experimental: as §1, §4, §5, §3

Proteus vulgaris (Pv) = experiment: as above; type: cell-based, Proteus vulgaris ATCC 881; settings: 48 h
Experimental: as §1, §4, §5, §3

[5] = tested on: Pseudomonas aeruginosa (Pa); experiment: as above; type: cell-based, Pseudomonas aeruginosa ATCC 10145; settings: 48 hours
Experimental: as §1, §4, §5, §3

[6] = tested on: Penicillium chrysogenum (Pc); experiment: Minimum inhibitory concentration (MIC) in malt yeast agar; type: cell-based, Penicillium chrysogenum ATCC 9480; settings: read-out: Minimum Inhibitory Concentration, Pc
Experimental: as §1, §2, §3

Aspergillus niger (An) = experiment: as above; type: cell-based, Aspergillus niger ATCC 16404; settings: malt yeast agar; 30° C.; 72 hours for fungi; read-out: Minimum Inhibitory Concentration, An
Experimental: as §1, §2, §3

[7] = tested on: Pseudomonas aeruginosa (PRD-10); experiment: Minimum inhibitory concentration (MIC) in nutrient agar; type: cell-based, Pseudomonas aeruginosa ATCC 15442; settings: 48 h
Experimental: as §1, §4, §5, §3

Trichoderma viride (Tv) = experiment: Minimum inhibitory concentration (MIC) in malt yeast agar; type: cell-based, Trichoderma viride ATCC 8678; settings: malt yeast agar; 30° C.; 72 hours for fungi; read-out: Minimum Inhibitory Concentration, Tv
Experimental: as §1, §2, §3

Fusarium oxysporum (Fo) = experiment: as above; type: cell-based, Fusarium oxysporum ATCC 48112; settings: malt yeast agar; 30° C.; 72 hours for fungi; read-out: Minimum Inhibitory Concentration, Fo
Experimental: as §1, §2, §3

[8] = tested on: Aureobasidium pullulan (Ap); experiment: as above; type: cell-based, Aureobasidium pullulan ATCC 16622; settings: malt yeast agar; 30° C.; 48 hours for yeast and 72 hours for fungi; read-out: Minimum Inhibitory Concentration, Ap
Experimental: as §1, §2, §3

[9] = tested on: Staphylococcus aureus (Sa); experiment: Minimum inhibitory concentration (MIC) in nutrient agar; type: cell-based, Staphylococcus aureus ATCC 6538
Experimental: as §1, §4, §5, §3

[10] = 48 h, pH 8.2, read-out: Minimum Inhibitory Concentration, Kp
[11] = pH 6.8, nutrient agar, 30° C., 48 hours, read-out: Minimum Inhibitory Concentration, Kp
[12] = pH 6.8, read-out: Minimum Inhibitory Concentration, Ea
[13] = pH 8.2, read-out: Minimum Inhibitory Concentration, Ea
[14] = pH 6.8, read-out: Minimum Inhibitory Concentration, Ec
[15] = pH 8.2, read-out: Minimum Inhibitory Concentration, Ec
[16] = pH 6.8, read-out: Minimum Inhibitory Concentration, Sc
[17] = pH 8.2, read-out: Minimum Inhibitory Concentration, Sc
[18] = pH 6.8, read-out: Minimum Inhibitory Concentration, Bs
[19] = pH 8.2, read-out: Minimum Inhibitory Concentration, Bs
[20] = pH 6.8, read-out: Minimum Inhibitory Concentration, Pv
[21] = pH 8.2, read-out: Minimum Inhibitory Concentration, Pv
[22] = pH 6.8, read-out: Minimum Inhibitory Concentration, PRD
[23] = pH 8.2, read-out: Minimum Inhibitory Concentration, PRD
[24] = 48 h, pH 8.2, read-out: Minimum Inhibitory Concentration, Sa
[25] = pH 6.8, nutrient agar, 30° C., 48 hours, read-out: Minimum Inhibitory Concentration, Sa

Row | SMILES | MIC [1] [µg/mL] | MIC (Candida albicans (Ca)) [µg/mL] | MIC [2, 10] [µg/mL] | MIC [2, 11] [µg/mL] | MIC [3, 12] [µg/mL] | MIC [3, 13] [µg/mL] | MIC (Escherichia coli (Ec); [14]) [µg/mL] | MIC (Escherichia coli (Ec); [15]) [µg/mL] | MIC [4, 16] [µg/mL] | MIC [4, 17] [µg/mL] | MIC (Bacillus subtilis (Bs); [18]) [µg/mL] | MIC (Bacillus subtilis (Bs); [19]) [µg/mL] | MIC (Proteus vulgaris (Pv); [20]) [µg/mL] | MIC (Proteus vulgaris (Pv); [21]) [µg/mL] | MIC ([5]; pH 6.8, 30° C.) [µg/mL] | MIC ([5]; pH 8.2, 30° C.) [µg/mL] | MIC (Aspergillus niger (An)) [µg/mL] | MIC [7, 22] [µg/mL] | MIC [7, 23] [µg/mL] | MIC (Trichoderma viride (Tv)) [µg/mL] | further results
1 | N#CC(C#N)=C1Sc2nc3ccccc3nc2S1 [Compound P, 1,3-dithiolo-(4,5-b)-quinoxaline-2-ylidene-propanedinitrile] | > 500 | > 500 | > 500 | > 500 | > 500 | > 500 | > 500 | > 500 | > 500 | > 500 | > 500 | > 500 | > 500 | > 500 | > 500 | > 500 | 500 (≈ 1860 µM) | > 500 | > 500 | > 500 | MIC ([6]; malt yeast agar, 30° C., 72 hours for fungi): 500 µg/mL (≈ 1860 µM); MIC (Fusarium oxysporum (Fo)): > 500 µg/mL; MIC [8]: 500 µg/mL (≈ 1860 µM); MIC [9, 24]: > 500 µg/mL; MIC [9, 25]: > 500 µg/mL
2 | Cc1cc2nc3c(nc2cc1[N+](=O)[O-])SC(=C(C#N)C#N)S3 [R, 6-nitro-7-methyl-1,3-dithiolo-(4,5-b)-quinoxaline-2-ylidene-propanedinitrile] | 500 (≈ 1530 µM) | > 500 | > 500 | > 500 | > 500 | > 500 | > 500 | > 500 | > 500 | > 500 | > 500 | > 500 | > 500 | > 500 | > 500 | > 500 | 100 (≈ 305 µM) | > 500 | > 500 | > 500 | MIC ([6]; 72 h): 50 µg/mL (≈ 153 µM); MIC (Fusarium oxysporum (Fo)): > 500 µg/mL; MIC [8]: 500 µg/mL (≈ 1530 µM); MIC [9, 24]: > 500 µg/mL; MIC [9, 25]: > 500 µg/mL
